In patent US20070049564A1 (Wyeth, priority 2005, published 2007):
≈ marks a conversion by molar mass, not a printed value. Read-outs that look alike come from different tables or passages of the source.

Legend:
Staph. aureus Smith = assay: In vivo activity (oral, iv; ED50) against Staph. aureus Smith in mice
Method: Representative examples of compounds of Formula I were tested for the oral efficacy using S. aureus Smith in mice.

E. coli = assay: Range of MIC for E. coli strains; settings: Escherichia coli
E. coli #311 = assay: In vivo activity (oral, iv; ED50) against E. coli in mice; settings: Escherichia coli
Excerpt: . […] Smith and E. Coli #311 in mammals.
Results of the tests (MIC, oral and IV) are list in Table 7.

Staph. = assay: Range of MIC for Staph. strains, including MRSA; settings: Staphylococcus aureus
[1] = Staphylococcus aureus, in Mus musculus, po, read-out: ED50 Staph Smith SOD
[2] = iv, read-out: ED50 Staph Smith SIV
[3] = 20 h, read-out: Range of MIC, E. coli (Mouse Serum)
[4] = single intravenous dose (SIV), read-out: ED50 E. coli #311 SIV
[5] = single oral dose (SOD), read-out: ED50 E. coli #311 SOD
[6] = MRSA, read-out: Range of MIC, Staph (Mouse Serum)
[7] = MRSA, read-out: Range of MIC, Staph (Water)
[8] = read-out: Minimum inhibitory concentration (MIC), Staph (Human Serum)
[9] = read-out: Minimum inhibitory concentration (MIC), Staph (Water)
[10] = read-out: Range of MIC, E. coli (Water)

Compound	ED50 (Staph. aureus Smith; [1]) [mg/kg]	ED50 (Staph. aureus Smith; [2]) [mg/kg]	MIC (E. coli; [3]) [µg/mL]	ED50 (E. coli #311; [4]) [mg/kg]	ED50 (E. coli #311; [5]) [mg/kg]	MIC (Staph.; [6]) [µg/mL]	MIC (Staph.; [7]) [µg/mL]	MIC (Staph.; [8]) [µg/mL]	MIC (Staph.; [9]) [µg/mL]	MIC (E. coli; read-out: Minimum inhibitory concentration (MIC), E. coli (Human Serum)) [µg/mL]	MIC (E. coli; read-out: Minimum inhibitory concentration (MIC), E. coli (water)) [µg/mL]	MIC (E. coli; [10]) [µg/mL]
CN(C)c1cc(NC(=O)CN(C(=O)OCOC(=O)c2ccc(C(F)(F)F)cc2)C(C)(C)C)c(O)c2c1C[C@H]1C[C@H]3[C@H](N(C)C)C(O)=C(C(N)=O)C(=O)[C@@]3(O)C(O)=C1C2=O [Example 55, ({[(2-{[(5aR,6aS,7S,10aS)-9-(aminocarbonyl)-4,7-bis(dimethylamino)-1,8,10a,11-tetrahydroxy-10,12-dioxo-5,5a,6,6a,7,10,10a,12-octahydrotetracen-2-yl]amino}-2-oxoethyl)(tert-butyl)amino]carbonyl}oxy)methyl 4-(trifluoromethyl)benzoate]	> 16	1.81	0.5 to 8 (≈ 0.601 to 9.62 µM)	4.69	32	1 to 2 (≈ 1.2 to 2.4 µM)	2 to 8 (≈ 2.4 to 9.62 µM)	1 to 4 (≈ 1.2 to 4.81 µM)	2 to 8 (≈ 2.4 to 9.62 µM)			
CN(C)c1cc(NC(=O)CN(C(=O)OCOC(=O)C23CC4CC(CC(C4)C2)C3)C(C)(C)C)c(O)c2c1C[C@H]1C[C@H]3[C@H](N(C)C)C(O)=C(C(N)=O)C(=O)[C@@]3(O)C(O)=C1C2=O [Example 57, ({[(2-{[(5aR,6aS,7S,10aS)-9-(aminocarbonyl)-4,7-bis(dimethylamino)-1,8,10a,11-tetrahydroxy-10,12-dioxo-5,5a,6,6a,7,10,10a,12-octahydrotetracen-2-yl]amino}-2-oxoethyl)(tert-butyl)amino]carbonyl}oxy)methyl adamantane-1-carboxylate]	6.36	1.17	0.5 to 4 (≈ 0.608 to 4.87 µM)			0.5 to 2 (≈ 0.608 to 2.43 µM)	4 to 16 (≈ 4.87 to 19.5 µM)	1 to 8 (≈ 1.22 to 9.73 µM)	4 to 16 (≈ 4.87 to 19.5 µM)	> 64	> 64	> 64
CN(C)c1cc(NC(=O)CN(C(=O)OCOC(=O)c2ccc(-c3ccccc3)cc2)C(C)(C)C)c(O)c2c1C[C@H]1C[C@H]3[C@H](N(C)C)C(O)=C(C(N)=O)C(=O)[C@@]3(O)C(O)=C1C2=O [Example 71, ({[(2-{[(5aR,6aS,7S,10aS)-9-(aminocarbonyl)-4,7-bis(dimethylamino)-1,8,10a,11-tetrahydroxy-10,12-dioxo-5,5a,6,6a,7,10,10a,12-octahydrotetracen-2-yl]amino}-2-oxoethyl)(tert-butyl)amino]carbonyl}oxy)methyl 1,1′-biphenyl-4-carboxylate]	> 32	1	0.12 to 0.25 (≈ 0.143 to 0.298 µM)	> 4	> 32	0.5 to 1 (≈ 0.595 to 1.19 µM)	32 to 64 (≈ 38.1 to 76.2 µM)					> 64
CN(C)c1cc(NC(=O)CN(C(=O)OCOC(=O)C(c2ccccc2)c2ccccc2)C(C)(C)C)c(O)c2c1C[C@H]1C[C@H]3[C@H](N(C)C)C(O)=C(C(N)=O)C(=O)[C@@]3(O)C(O)=C1C2=O [Example 74, ({[(2-{[(5aR,6aS,7S,10aS)-9-(aminocarbonyl)-4,7-bis(dimethylamino)-1,8,10a,11-tetrahydroxy-10,12-dioxo-5,5a,6,6a,7,10,10a,12-octahydrotetracen-2-yl]amino}-2-oxoethyl)(tert-butyl)amino]carbonyl}oxy)methyl diphenylacetate]	> 32	1.08	0.25 to 1 (≈ 0.293 to 1.17 µM)	> 4	> 32	0.5 to 4 (≈ 0.586 to 4.68 µM)						> 64
CN(C)c1cc(NC(=O)CN(C(=O)OCOC(=O)c2cccc3ccccc23)C(C)(C)C)c(O)c2c1C[C@H]1C[C@H]3[C@H](N(C)C)C(O)=C(C(N)=O)C(=O)[C@@]3(O)C(O)=C1C2=O [Example 81, ({[(2-{[(5aR,6aS,7S,10aS)-9-(aminocarbonyl)-4,7-bis(dimethylamino)-1,8,10a,11-tetrahydroxy-10,12-dioxo-5,5a,6,6a,7,10,10a,12-octahydrotetracen-2-yl]amino}-2-oxoethyl)(tert-butyl)amino]carbonyl}oxy)methyl 1-naphthoate]	16 to 32	> 4	0.5 to 1 (≈ 0.614 to 1.23 µM)			0.5 to 2 (≈ 0.614 to 2.46 µM)	4 to 8 (≈ 4.91 to 9.83 µM)					8 to 16 (≈ 9.83 to 19.7 µM)
CN(C)c1cc(NC(=O)CN(C(=O)OCOC(=O)c2ccc3ccccc3c2)C(C)(C)C)c(O)c2c1C[C@H]1C[C@H]3[C@H](N(C)C)C(O)=C(C(N)=O)C(=O)[C@@]3(O)C(O)=C1C2=O [Example 82, ({[(2-{[(5aR,6aS,7S,10aS)-9-(aminocarbonyl)-4,7-bis(dimethylamino)-1,8,10a,11-tetrahydroxy-10,12-dioxo-5,5a,6,6a,7,10,10a,12-octahydrotetracen-2-yl]amino}-2-oxoethyl)(tert-butyl)amino]carbonyl}oxy)methyl 2-naphthoate]	22	0.52				4 to 6 (≈ 4.91 to 7.37 µM)	4 to 8 (≈ 4.91 to 9.83 µM)					> 64
CN(C)c1cc(NC(=O)CN(C(=O)OCOC(=O)c2c(F)cccc2F)C(C)(C)C)c(O)c2c1C[C@H]1C[C@H]3[C@H](N(C)C)C(O)=C(C(N)=O)C(=O)[C@@]3(O)C(O)=C1C2=O [Example 90, ({[(2-{[(5aR,6aS,7S,10aS)-9-(aminocarbonyl)-4,7-bis(dimethylamino)-1,8,10a,11-tetrahydroxy-10,12-dioxo-5,5a,6,6a,7,10,10a,12-octahydrotetracen-2-yl]amino}-2-oxoethyl)(tert-butyl)amino]carbonyl}oxy)methyl 2,6-difluorobenzoate]	16 to 32	0.5 to 1	2 to 4 (≈ 2.5 to 5 µM)			0.25 to 2 (≈ 0.313 to 2.5 µM)	1 to 16 (≈ 1.25 to 20 µM)					> 64
CN(C)c1cc(NC(=O)CN(C(=O)OCOC(=O)c2ccccc2F)C(C)(C)C)c(O)c2c1C[C@H]1C[C@H]3[C@H](N(C)C)C(O)=C(C(N)=O)C(=O)[C@@]3(O)C(O)=C1C2=O [Example 91, ({[(2-{[(5aR,6aS,7S,10aS)-9-(aminocarbonyl)-4,7-bis(dimethylamino)-1,8,10a,11-tetrahydroxy-10,12-dioxo-5,5a,6,6a,7,10,10a,12-octahydrotetracen-2-yl]amino}-2-oxoethyl)(tert-butyl)amino]carbonyl}oxy)methyl 2-fluorobenzoate]	11.7	1.21	0.5 to 2 (≈ 0.64 to 2.56 µM)			0.12 to 0.25 (≈ 0.153 to 0.32 µM)	0.25 to 2 (≈ 0.32 to 2.56 µM)					> 64
CN(C)c1cc(NC(=O)CN(C(=O)OCOC(=O)c2ccc(N3CCCC3)cc2)C(C)(C)C)c(O)c2c1C[C@H]1C[C@H]3[C@H](N(C)C)C(O)=C(C(N)=O)C(=O)[C@@]3(O)C(O)=C1C2=O [Example 93, ({[(2-{[(5aR,6aS,7S,10aS)-9-(aminocarbonyl)-4,7-bis(dimethylamino)-1,8,10a,11-tetrahydroxy-10,12-dioxo-5,5a,6,6a,7,10,10a,12-octahydrotetracen-2-yl]amino}-2-oxoethyl)(tert-butyl)amino]carbonyl}oxy)methyl 4-pyrrolidin-1-ylbenzoate]	> 32	0.5 to 1	1 to 4 (≈ 1.2 to 4.8 µM)			1 to 2 (≈ 1.2 to 2.4 µM)	32 to 64 (≈ 38.4 to 76.8 µM)					
CCCCN(CC(=O)Nc1cc(N(C)C)c2c(c1O)C(=O)C1=C(O)[C@]3(O)C(=O)C(C(N)=O)=C(O)[C@@H](N(C)C)C3CC1C2)C(=O)OCc1oc(=O)oc1-c1ccccc1 (stereo partly drawn) [Example 112, (2-oxo-5-phenyl-1,3-dioxol-4-yl)methyl 2-{[(7S,10aS)-9-(aminocarbonyl)-4,7-bis(dimethylamino)-1,8,10a,11-tetrahydroxy-10,12-dioxo-5,5a,6,6a,7,10,10a,12-octahydrotetracen-2-yl]amino}-2-oxoethyl(butyl)carbamate]	6.12	0.48	1 to 4 (≈ 1.24 to 4.98 µM)			2 to 8 (≈ 2.49 to 9.95 µM)	4 to 16 (≈ 4.98 to 19.9 µM)					2 to 8 (≈ 2.49 to 9.95 µM)
CCCCN(CC(=O)Nc1cc(N(C)C)c2c(c1O)C(=O)C1=C(O)[C@]3(O)C(=O)C(C(N)=O)=C(O)[C@@H](N(C)C)C3CC1C2)C(=O)OCc1oc(=O)oc1-c1ccc(OC)cc1 (stereo partly drawn) [Example 113, [5-(4-methoxyphenyl)-2-oxo-1,3-dioxol-4-yl]methyl 2-{[(7S,10aS)-9-(aminocarbonyl)-4,7-bis(dimethylamino)-1,8,10a,11-tetrahydroxy-10,12-dioxo-5,5a,6,6a,7,10,10a,12-octahydrotetracen-2-yl]amino}-2-oxoethyl(butyl)carbamate]	7.01	0.4	1 to 4 (≈ 1.2 to 4.8 µM)			4 to 16 (≈ 4.8 to 19.2 µM)	4 to 32 (≈ 4.8 to 38.4 µM)					2 to 16 (≈ 2.4 to 19.2 µM)
